Target: T1, Sh-PPase (Mn-Sh-PPase; Mg-Sh-PPase) (Shewanella sp. AS-11, UniProt L8AXY8)
T1 construct: gene ppia; recombinant full-length (no tag stated), expressed in E. coli BL21 (DE3); ammonium sulphate fractionation, anion exchange, gel filtration; family II PPases are homodimers
T1 sequence (L8AXY8 2-308): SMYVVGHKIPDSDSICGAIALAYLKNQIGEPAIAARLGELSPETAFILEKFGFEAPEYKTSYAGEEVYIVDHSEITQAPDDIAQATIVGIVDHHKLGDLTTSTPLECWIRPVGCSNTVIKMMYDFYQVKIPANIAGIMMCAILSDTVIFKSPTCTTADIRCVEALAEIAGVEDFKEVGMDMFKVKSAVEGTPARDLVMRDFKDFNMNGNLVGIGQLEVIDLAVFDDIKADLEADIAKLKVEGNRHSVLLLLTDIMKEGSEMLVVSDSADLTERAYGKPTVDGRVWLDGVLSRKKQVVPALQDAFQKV
Test: CW X-band EPR of the di-Mn centre
Assay type: binding
Conditions: Mn-activated enzyme, pH 7.5, frozen solution

## O=P(O)(O)CP(=O)(O)O [PCP, methylendiphosphonic acid]
Substrate analogue, di-Mn centre signal lost on binding (inferred binding)
  CW X-band EPR of the di-Mn centre: binding of PCP induced the decomposition of the di-Mn centre

## O=S(=O)(O)O [sulphate]
Added as ammonium sulphate, substrate binding site
  CW X-band EPR of the di-Mn centre: sulphate ion bound correctly to the substrate binding site
